Assay results published in ChEMBL document CHEMBL1157778, “Frontal affinity chromatography-mass spectrometry useful for characterization of new ligands for GPR17 receptor” (J Med Chem, 2010).

Legend:
Type in all cases: functional, cell-based
[1] = biological target: T1, Uracil nucleotide/cysteinyl leukotriene receptor (Homo sapiens, UniProt Q13304); experiment: Antagonist activity at human GPR17 expressed in human 1321N1 cells assessed as inhibition of UDP-glucose-induced [35S]GTPgammaS binding after 30 mins by rapid filtration assay
[2] = Agonist activity at human GPR17 R255I mutant expressed in human 1321N1 cells assessed as induction of [35S]GTPgammaS binding after 30 mins by rapid filtration assay
[3] = biological target: T1, Uracil nucleotide/cysteinyl leukotriene receptor; experiment: Agonist activity at human GPR17 expressed in human 1321N1 cells assessed as induction of [35S]GTPgammaS binding after 30 mins by rapid filtration assay
[4] = Antagonist activity at human GPR17 R255I mutant expressed in human 1321N1 cells assessed as inhibition of UDP-glucose-induced [35S]GTPgammaS binding after 30 mins by rapid filtration assay

T1 sequence (Q13304 whole entry): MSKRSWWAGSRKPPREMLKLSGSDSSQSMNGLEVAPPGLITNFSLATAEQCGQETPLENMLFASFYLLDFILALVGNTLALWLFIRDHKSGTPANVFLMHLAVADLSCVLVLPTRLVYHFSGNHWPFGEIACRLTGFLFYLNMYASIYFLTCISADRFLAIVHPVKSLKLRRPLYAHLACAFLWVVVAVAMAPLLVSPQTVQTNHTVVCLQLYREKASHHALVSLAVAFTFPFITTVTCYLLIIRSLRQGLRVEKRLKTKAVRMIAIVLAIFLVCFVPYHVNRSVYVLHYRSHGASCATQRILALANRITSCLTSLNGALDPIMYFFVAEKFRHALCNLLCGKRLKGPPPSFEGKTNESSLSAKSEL

CNc1ncnc2c1ncn2[C@@H]1O[C@H](COP(=O)(O)OP(=O)(O)OP(=O)(O)O)[C@@H](O)[C@H]1O
IC50 [1]: 112 nM

O=c1[nH]c(=O)n([C@@H]2O[C@H](COP(=O)(O)OP(=O)(O)O)[C@@H](O)[C@H]2O)cc1I
EC50 [2]: 1870 nM | EC50 [3]: 945 nM

Nc1nc(Cl)nc2c1ncn2[C@H]1C[C@H](OP(=O)(O)O)[C@@H](COP(=O)(O)O)O1
IC50 [1]: 582 nM

CNc1ncnc2c1ncn2[C@H]1C[C@H](OP(=O)(O)O)[C@@H](COP(=O)(O)O)O1
IC50 [1]: 508 nM | IC50 [4]: 227 nM

O=P(O)(O)OP(=O)(O)OP(=O)(O)OC[C@H]1O[C@@H](n2cnc3c(NC4CCCC4)ncnc32)[C@H](O)[C@@H]1O
EC50 [3]: 1.4 nM

Nc1nc(C#Cc2ccccc2)nc2c1ncn2[C@@H]1O[C@H](COP(=O)(O)OP(=O)(O)OP(=O)(O)O)[C@@H](O)[C@H]1O
EC50 [2]: 0.0254 nM | EC50 [3]: 0.036 nM

CNc1nc(Cl)nc2c1ncn2[C@@H]1O[C@H](COP(=O)(O)OP(=O)(O)OP(=O)(O)O)[C@@H](O)[C@H]1O
EC50 [3]: 11 nM

CNc1nc(Cl)cc2c1ncn2[C@@H]1O[C@H](COP(=O)(O)OP(=O)(O)OP(=O)(O)O)[C@@H](O)[C@H]1O
EC50 [3]: 1.7 nM
